Laboratory results as given in patent publication USRE38257E1, “Piperdine derivatives and hypotensives containing the same” (Ajinomoto Co., Inc., priority 1988, dated 2003).

Tested on: male spontaneously hypertensive rats
Assay: Decrease in systolic blood pressure in spontaneously hypertensive rats after intravenous bolus injection, indirect (tail-cuff) method
Format: in vivo, rat
Details: for Decrease in systolic blood pressure (mmHg) time after administration (hour) 0.5: 0.5 hour after administration; for Decrease in systolic blood pressure (mmHg) time after administration (hour) 4: 4 hours after administration
Protocol: As test animals, four male spontaneously hypertensive rats (weight 400 to 440 g) that were sufficiently adapted for feeding and in which hypertension was confirmed were used.
Physiological saline aqueous solution containing 2.5% Nicolle and 2.5% ethanol of sample was intravenously administered by bolus injection at a dose of 1 ml per 1 kg of body weight. Systolic blood pressure after administration was measured by the indirect (tail-cuff) method.

COc1ccc(C(O)CCCN2CCC(=C3c4ccccc4C=Cc4ccccc43)CC2)cc1OC.Cl (stereo not shown) [Example 205, 4-(4-(5H-Dibenzo[a,d]cyclohepten-5-ylidene)-1-piperidinyl)-1-(3,4-dimethoxy)phenyl-1-hydroxybutane hydrochloride]
Decrease in systolic blood pressure (mmHg) time after administration (hour) 0.5 (dose 10 mg/kg i.v. bolus): −22 mmHg
Decrease in systolic blood pressure (mmHg) time after administration (hour) 4 (dose 10 mg/kg i.v. bolus): −4 mmHg

COc1cc(C=CCN2CCC(=C3c4ccccc4C=Cc4ccccc43)CC2)ccc1O.Cl [Example 365, 4-(5H-Dibenzo[a,d]cyclohepten-5-ylidene)-1-(4-hydroxy-3-methoxycinnamyl)piperidine hydrochloridine]
Decrease in systolic blood pressure (mmHg) time after administration (hour) 0.5 (dose 3 mg/kg i.v. bolus): −80 mmHg
Decrease in systolic blood pressure (mmHg) time after administration (hour) 4 (dose 3 mg/kg i.v. bolus): −56 mmHg

Cl.Cl.Nc1ccc(CCCN2CCC(=C3c4ccccc4C=Cc4ccccc43)CC2)cc1 [Example 248, 1-(4-Aminophenyl)-3-(4-(5H-Dibenzo[a,d]cyclohepten-5-ylidene)-1-piperidinyl)propane dihydrochloride]
Decrease in systolic blood pressure (mmHg) time after administration (hour) 0.5 (dose 10 mg/kg i.v. bolus): −101 mmHg
Decrease in systolic blood pressure (mmHg) time after administration (hour) 4 (dose 10 mg/kg i.v. bolus): −92 mmHg

C1=Cc2ccccc2C(=C2CCN(CCCCCCc3ccccc3)CC2)c2ccccc21.Cl [Example 17, 6-(4-(5H-Dibenzo[a,d]cyclohepten-5-ylidene)-1-piperidinyl)-1-phenylhexane hydrochloride]
Decrease in systolic blood pressure (mmHg) time after administration (hour) 0.5 (dose 10 mg/kg i.v. bolus): −84 mmHg
Decrease in systolic blood pressure (mmHg) time after administration (hour) 4 (dose 10 mg/kg i.v. bolus): −16 mmHg

Cl.Cl.Nc1ccc(C=CCN2CCC(=C3c4ccccc4C=Cc4ccccc43)CC2)cc1 [Example 326, 1-(4-Aminocinnamyl)-4-(5H-Dibenzo[a,d]cyclohepten-5-ylidene)-1-piperidine dihydrochloride]
Decrease in systolic blood pressure (mmHg) time after administration (hour) 0.5 (dose 1 mg/kg i.v. bolus): −125 mmHg
Decrease in systolic blood pressure (mmHg) time after administration (hour) 4 (dose 1 mg/kg i.v. bolus): −102 mmHg

CCOC(=O)C(CCCN1CCC(=C2c3ccccc3C=Cc3ccccc32)CC1)C1CCCCC1.Cl (stereo not shown) [Example 220, Ethyl 2-cyclohexyl-5-(4-(5H-Dibenzo[a,d]cyclohepten-5-ylidene)-1-piperidinyl)valerate hydrochloride]
Decrease in systolic blood pressure (mmHg) time after administration (hour) 0.5 (dose 10 mg/kg i.v. bolus): −148 mmHg
Decrease in systolic blood pressure (mmHg) time after administration (hour) 4 (dose 10 mg/kg i.v. bolus): −54 mmHg

CCOC(=O)C(CCN1CCC(=C2c3ccccc3C=Cc3ccccc32)CC1)CC1CCCCC1.Cl (stereo not shown) [Example 259, Ethyl 2-cyclohexylmethyl-4-(4-(5H-dibenzo[a,d]cyclohepten-5-ylidene)-1-piperidinyl)butyrate hydrochloride]
Decrease in systolic blood pressure (mmHg) time after administration (hour) 0.5 (dose 10 mg/kg i.v. bolus): −46 mmHg
Decrease in systolic blood pressure (mmHg) time after administration (hour) 4 (dose 10 mg/kg i.v. bolus): −5 mmHg

CCOC(=O)C1CCN(C(=O)CCCN2CCC(=C3c4ccccc4C=Cc4ccccc43)CC2)CC1.Cl [Example 217, 1-(4-(4-(5H-Dibenzo[a,d]cyclohepten-5-ylidene)-1-piperidinyl)butanoyl)-4-ethoxyxarbonpiperidine hydrochloride]
Decrease in systolic blood pressure (mmHg) time after administration (hour) 0.5 (dose 10 mg/kg i.v. bolus): −18 mmHg
Decrease in systolic blood pressure (mmHg) time after administration (hour) 4 (dose 10 mg/kg i.v. bolus): −20 mmHg

Cl.O=C(CCCN1CCC(=C2c3ccccc3C=Cc3ccccc32)CC1)c1ccco1 [Example 233, 4-(4-(5H-Dibenzo[a,d]cyclohepten-5-ylidene)-1-piperidinyl)-1-(2-furyl)-1-butanone hydrochloride]
Decrease in systolic blood pressure (mmHg) time after administration (hour) 0.5 (dose 10 mg/kg i.v. bolus): −35 mmHg
Decrease in systolic blood pressure (mmHg) time after administration (hour) 4 (dose 10 mg/kg i.v. bolus): −1 mmHg

C1=Cc2ccccc2C(=C2CCN(CCCC3CCCCN3)CC2)c2ccccc21.Cl.Cl (stereo not shown) [Example 307, 3-(4-(5H-Dibenzo[a,d]cyclohepten-5-ylidene)-1-piperidinyl)-1-(2-piperidinyl)propane dihydrochloride]
Decrease in systolic blood pressure (mmHg) time after administration (hour) 0.5 (dose 10 mg/kg i.v. bolus): −62 mmHg
Decrease in systolic blood pressure (mmHg) time after administration (hour) 4 (dose 10 mg/kg i.v. bolus): −20 mmHg

Cl.N#Cc1ccccc1CN1CCC(=C2c3ccccc3C=Cc3ccccc32)CC1 [Example 158, 1-(2-Cyanobenzyl)-4-(5H-dibenzo[a,d]cyclohepten-5-ylidene)piperidine hydrochloride]
Decrease in systolic blood pressure (mmHg) time after administration (hour) 0.5 (dose 10 mg/kg i.v. bolus): −8 mmHg
Decrease in systolic blood pressure (mmHg) time after administration (hour) 4 (dose 10 mg/kg i.v. bolus): 7 mmHg

CCCCCCCCCCN1CCC(=C2c3ccccc3CCc3ccccc32)CC1.Cl [Example 185, 1-Decyl-4-(10,11-Dihydro-5H-dibenzo[a,d]cyclohepten-5-ylidene)piperidine hydrochloride]
Decrease in systolic blood pressure (mmHg) time after administration (hour) 0.5 (dose 10 mg/kg i.v. bolus): −66 mmHg
Decrease in systolic blood pressure (mmHg) time after administration (hour) 4 (dose 10 mg/kg i.v. bolus): −10 mmHg

C1=Cc2ccccc2C(=C2CCN(Cc3cccc4ccccc34)CC2)c2ccccc21.Cl [Example 214, 4-(5H-Dibenzo[a,d]cyclohepten-5-ylidene)-1-(1-naphthylmethyl)piperidine hydrochloride]
Decrease in systolic blood pressure (mmHg) time after administration (hour) 0.5 (dose 10 mg/kg i.v. bolus): −126 mmHg
Decrease in systolic blood pressure (mmHg) time after administration (hour) 4 (dose 10 mg/kg i.v. bolus): −21 mmHg

CC(CC(=O)c1ccccc1)N1CCC(=C2c3ccccc3C=Cc3ccccc32)CC1.Cl (stereo not shown) [Example 100, 3-(4-(5H-Dibenzo[a,d]cyclohepten-5-ylidene)-1-piperidinyl)butyrophenone hydrochloride]
Decrease in systolic blood pressure (mmHg) time after administration (hour) 0.5 (dose 10 mg/kg i.v. bolus): −35 mmHg
Decrease in systolic blood pressure (mmHg) time after administration (hour) 4 (dose 10 mg/kg i.v. bolus): −5 mmHg

COC1CCCC(CCCCN2CCC(=C3c4ccccc4C=Cc4ccccc43)CC2)C1.Cl (stereo not shown) [Example 299, 1-(1-(3-Methoxy)cyclohexyl)-4-(4-(5H-dibenzo[a,d]cyclohepten-5-ylidene)-1-piperidinyl)butane hydrochloride]
Decrease in systolic blood pressure (mmHg) time after administration (hour) 0.5 (dose 10 mg/kg i.v. bolus): −134 mmHg
Decrease in systolic blood pressure (mmHg) time after administration (hour) 4 (dose 10 mg/kg i.v. bolus): −45 mmHg

Cl.N#CC1CCC(CCCCN2CCC(=C3c4ccccc4C=Cc4ccccc43)CC2)CC1 (stereo not shown) [Example 297, 1-(1-(4-Cyano)cyclohexyl)-4-(4-(5H-Dibenzo[a,d]cyclohepten-5-ylidene)-1-piperidinyl)butane hydrochloride]
Decrease in systolic blood pressure (mmHg) time after administration (hour) 0.5 (dose 10 mg/kg i.v. bolus): −129 mmHg
Decrease in systolic blood pressure (mmHg) time after administration (hour) 4 (dose 10 mg/kg i.v. bolus): −57 mmHg

COc1cccc(C=CCN2CCC(=C3c4ccccc4C=Cc4ccccc43)CC2)c1OC.Cl [Example 193, 4-(5H-Dibenzo[a,d]cyclohepten-5-ylidene)-1-(2-dimethoxycinnamyl)piperidine hydrochloride]
Decrease in systolic blood pressure (mmHg) time after administration (hour) 0.5 (dose 10 mg/kg i.v. bolus): −124 mmHg
Decrease in systolic blood pressure (mmHg) time after administration (hour) 4 (dose 10 mg/kg i.v. bolus): −59 mmHg

C(=Cc1ccccc1)CN1CCC(=C2c3ccccc3C=Cc3ccccc32)CC1.Cl [Example 38, 1-Cinnamyl-4-(5H-dibenzo[a, d]cyclohepten-5-ylidene)piperidine hydrochloride]
Decrease in systolic blood pressure (mmHg) time after administration (hour) 0.5 (dose 10 mg/kg i.v. bolus): −140 mmHg
Decrease in systolic blood pressure (mmHg) time after administration (hour) 4 (dose 10 mg/kg i.v. bolus): −76 mmHg

Cl.OC1CCC(CCCCN2CCC(=C3c4ccccc4C=Cc4ccccc43)CC2)CC1 (stereo not shown) [Example 296, 1-(1-(4-Hydroxy)cyclohexyl)-4-(4-(5H-dibenzo[a,d]cyclohepten-5-ylidene)-1-piperidinyl)butane hydrochloride]
Decrease in systolic blood pressure (mmHg) time after administration (hour) 0.5 (dose 10 mg/kg i.v. bolus): −109 mmHg
Decrease in systolic blood pressure (mmHg) time after administration (hour) 4 (dose 10 mg/kg i.v. bolus): −14 mmHg

Cl.FC(F)(F)c1cccc(CN2CCC(=C3c4ccccc4C=Cc4ccccc43)CC2)c1 [Example 115, 4-(5H-Dibenzo[a,d]cyclohepten-5-ylidene)-1-(3-trifluoromethylbenzyl)piperidine hydrochloride]
Decrease in systolic blood pressure (mmHg) time after administration (hour) 0.5 (dose 10 mg/kg i.v. bolus): −53 mmHg
Decrease in systolic blood pressure (mmHg) time after administration (hour) 4 (dose 10 mg/kg i.v. bolus): −19 mmHg
